From US20240116857A1 (St. Louis University, priority 2022, published 2024) come the findings set out here.

For the first assay, the system named is E. coli BW25113. As to the kind of experiment: MIC, 2-fold broth dilution, E. coli BW25113. It counts as cell-based, Escherichia coli. The conditions noted are these: Escherichia coli; E. coli BW25113; asterisk in column 1-10; read-out: MIC, μM 1-10.
With `C[n+]1ccc(Nc2ccc(NC(=O)c3ccc(Cc4ccc(C(=O)Nc5ccc(Nc6cc[n+](C)cc6)cc5)cc4)cc3)cc2)cc1` [Example 52, 4,4′-((((4,4′-methylenebis(benzoyl))bis(azanediyl))bis(4,1-phenylene))bis(azanediyl))bis(1-methylpyridin-1-ium)], the MIC was 1 to 10 µM.
Still for that read-out and setting: the same measure for `C[n+]1ccc(-c2ccc(NC(=O)c3ccc(C(=O)Nc4ccc(-c5cc[n+](C)cc5)cc4)cc3)cc2)cc1` [Example 56]: 1 to 10 µM; for `C[n+]1ccc(Nc2ccc(NC(=O)c3ccc(C(=O)Nc4ccc(Nc5cc[n+](C)cc5)cc4)c(F)c3)cc2)cc1` [Example 58, 4,4′-((((2-fluoroterephthaloyl)bis(azanediyl))bis(4,1-phenylene))bis(azanediyl))bis(1-methylpyridin-1-ium)]: 1 to 10 µM; for `C[N+](C)(C)c1ccc(NC(=O)c2ccc(-c3ccc(C(=O)Nc4ccc([N+](C)(C)C)c(F)c4)cc3)cc2)cc1F` [Example 77, 2-fluoro-4-(4′-{[3-fluoro-4-(trimethylazaniumyl)phenyl]carbamoyl}-[1,1′-biphenyl]-4-amido)-N,N,N-trimethylanilinium]: 1 to 10 µM.

The assay is the same for the next values; noted with them: Escherichia coli; E. coli BW25113; asterisk in column 10-50; read-out: MIC, μM 10-50.
Take `Cc1c[n+](C)ccc1NC(=O)c1ccc(C(=O)Nc2ccc(Nc3cc[n+](C)cc3)cc2)cc1` [Example 55, 1,3-dimethyl-4-(4-((4-((1-methylpyridin-1-ium-4-yl)amino)phenyl)carbamoyl)benzamido)pyridin-1-ium]: the MIC was in the range of 10 to 50 µM.
The same measure, in the same setting: the same measure for `C[n+]1ccc(NC(=O)c2ccc(C(=O)Nc3ccc(Nc4cc[n+](C)cc4)cc3)cc2)cc1` [Example 62, 1-methyl-4-(4-((4-((1-methylpyridin-1-ium-4-yl)amino)phenyl)carbamoyl)benzamido)pyridin-1-ium]: 10 to 50 µM; for `C[n+]1ccc(NC(=O)c2ccc(C(=O)Nc3ccc(Nc4cc[n+](C)cc4)c(F)c3)cc2)cc1` [Example 66, 1-methyl-4-(4-((3-fluoro-4-((1-methylpyridin-1-ium-4-yl)amino)phenyl)carbamoyl)benzamido)pyridin-1-ium]: 10 to 50 µM.
In the case of `C[n+]1ccc(Oc2ccc(NC(=O)c3ccc(C(=O)Nc4ccc(Oc5cc[n+](C)cc5)cc4)c([N+](=O)[O-])c3)cc2)cc1` [Example 84, 4,4′-((((2-nitroterephthaloyl)bis(azanediyl))bis(4,1-phenylene))bis(oxy))bis(1-methylpyridin-1-ium)], the minimum inhibitory concentration (MIC) fell in the range of 10 to 50 µM.

The assay is the same for the next values; noted with them: Escherichia coli; E. coli BW25113; asterisk in column >50; read-out: MIC, μM >50.
With `O=C(Nc1ccc(Nc2ccncc2)cc1)c1ccc(Cc2ccc(C(=O)Nc3ccc(Nc4ccncc4)cc3)cc2)cc1` [Example 48], the MIC is more than 50 µM.
On to `CN(C)c1ccc(NC(=O)c2ccc(Cc3ccc(C(=O)Nc4ccc(N(C)C)cc4)cc3)cc2)cc1` [Example 49, 4,4′-methylenebis(N-(4-(dimethylamino)phenyl)benzamide)], for which the minimal inhibitory concentration (MIC) is more than 50 µM.
With `CN1CCC(Nc2ccc(NC(=O)c3ccc(C(=O)Nc4ccc(NC5CCN(C)CC5)cc4)cc3)cc2)CC1` [Example 50, N^1,N^4-bis(4-((1-methylpiperidin-4-yl)amino)phenyl)terephthalamide], the MIC was more than 50 µM.
Take `O=C(Nc1ccc(Nc2ccncc2)cc1)c1ccc(C(=O)Nc2ccc(Nc3ccncc3)cc2)c(F)c1` [Example 51, 2-fluoro-N^1,N^4-bis(4-(pyridin-4-ylamino)phenyl)terephthalamide]: the MIC is more than 50 µM.
As to `C[N+](C)(C)c1ccc(NC(=O)c2ccc(Cc3ccc(C(=O)Nc4ccc([N+](C)(C)C)cc4)cc3)cc2)cc1` [Example 53], the minimum inhibitory concentration (MIC) is more than 50 µM.
For the compound `O=C(Nc1ccc(-c2ccncc2)cc1)c1ccc(C(=O)Nc2ccc(-c3ccncc3)cc2)cc1` [Example 54, N^1,N^4-bis(4-(pyridin-4-yl)phenyl)terephthalamide], the MIC is more than 50 µM.
On to `C[n+]1ccc(-c2ccc(NC(=O)c3ccc(-c4ccc(C(=O)Nc5ccc(-c6cc[n+](C)cc6)cc5)cc4)cc3)cc2)cc1` [Example 59, 4,4′-((([1,1′-biphenyl]-4,4′-dicarbonyl)bis(azanediyl))bis(4,1-phenylene))bis(1-methylpyridin-1-ium)], for which the MIC is more than 50 µM.
On to `O=C(Nc1ccc(Nc2ccncc2)cc1)[C@H]1CC[C@H](C(=O)Nc2ccc(Nc3ccncc3)cc2)CC1` [Example 60, (E)-N^1,N^4-bis(4-(pyridin-4-ylamino)phenyl)cyclohexane-1,4-dicarboxamide], for which the minimal inhibitory concentration (MIC) was more than 50 µM.
On to `C[N+](C)(C)C1CCC(NC(=O)c2ccc(-c3ccc(C(=O)NC4CCC([N+](C)(C)C)CC4)cc3)cc2)CC1` (stereo not drawn) [Example 61, 4,4′-(([1,1′-biphenyl]-4,4′-dicarbonyl)bis(azanediyl))bis(N,N,N-trimethylcyclohexan-1-aminium)], for which the minimum inhibitory concentration (MIC) is more than 50 µM.
In the case of `COc1cc(Nc2cc[n+](C)cc2)ccc1NC(=O)c1ccc(C(=O)Nc2cc[n+](C)cc2)cc1` [Example 63, 4-(4-((2-methoxy-4-((1-methylpyridin-1-ium-4-yl)amino)phenyl)carbamoyl)benzamido)-1-methylpyridin-1-ium], the MIC was more than 50 µM.
Still for that read-out and setting: the same measure for `Cc1cc(NC(=O)c2ccc(C(=O)Nc3ccncc3)cc2)ccc1Nc1ccncc1` [Example 64, N^1-(3-methyl-4-(pyridin-4-ylamino)phenyl)-N^4-(pyridin-4-yl)terephthalamide]: more than 50 µM.
Still for that read-out and setting: the same measure for `Cc1cc(Nc2cc[n+](C)cc2)ccc1NC(=O)c1ccc(C(=O)Nc2cc[n+](C)cc2)cc1` [Example 67, 1-methyl-4-(4-((2-methyl-4-((1-methylpyridin-1-ium-4-yl)amino)phenyl)carbamoyl)benzamido)pyridin-1-ium]: more than 50 µM; for `O=C(Nc1ccc(Nc2ccncc2)cc1)c1ccc(C(=O)Nc2ccc(Nc3ccncc3)cc2)c(Br)c1` [Example 68, 2-bromo-N^1,N^4-bis(4-(pyridin-4-ylamino)phenyl)terephthalamide]: more than 50 µM; for `C[n+]1ccc(Nc2ccc(NC(=O)C3CCC(C(=O)Nc4ccc(Nc5cc[n+](C)cc5)cc4)CC3)cc2)cc1` (stereo not drawn) [Example 69, 4,4′-((((E)-cyclohexanedicarbonylbis(azanediyl))bis(4,1-phenylene))bis(azanediyl))bis(1-methylpyridin-1-ium)]: more than 50 µM.
For the compound `CN(C)c1ccc(NS(=O)(=O)c2ccc(-c3ccc(S(=O)(=O)Nc4ccc(N(C)C)cc4)cc3)cc2)cc1` [Example 70, N^4, N^4′-bis(4-(dimethylamino)phenyl)-[1,1′-biphenyl]-4,4′-disulfonamide], the MIC is more than 50 µM.
Take `C[N+](C)(C)c1ccc(NS(=O)(=O)c2ccc(-c3ccc(S(=O)(=O)Nc4ccc([N+](C)(C)C)cc4)cc3)cc2)cc1` [Example 71]: the MIC is more than 50 µM.
Same read-out and setting: the same measure for `CN(C)c1ccc(NC(=O)c2ccc(-c3ccc(C(=O)Nc4ccc(N(C)C)cc4)cn3)nc2)cc1` [Example 72, N^5,N^5′-bis(4-(dimethylamino)phenyl)-[2,2′-bipyridine]-5,5′-dicarboxamide]: more than 50 µM; for `C[N+](C)(C)c1ccc(NC(=O)c2ccc(-c3ccc(C(=O)Nc4ccc([N+](C)(C)C)cc4)cn3)nc2)cc1` [Example 73, 4,4′-(([2,2′-bipyridine]-5,5′-dicarbonyl)bis(azanediyl))bis(N,N,N-trimethylbenzenaminium)]: more than 50 µM.
Take `CN(C)c1ccc(NC(=O)c2ccc(-c3ccc(C(=O)Nc4ccc(N(C)C)c(C(F)(F)F)c4)cc3)cc2)cc1C(F)(F)F` [Example 74, N^4,N^4′-bis(4-(dimethylamino)-3-(trifluoromethyl)phenyl)-[1,1′-biphenyl]-4,4′-dicarboxamide]: the MIC was more than 50 µM.
In the case of `CN(C)c1ccc(NC(=O)c2ccc(-c3ccc(C(=O)Nc4ccc(N(C)C)c(F)c4)cc3)cc2)cc1F` [Example 75, N^4,N^4′-bis(4-(dimethylamino)-3-fluorophenyl)-[1,1′-biphenyl]-4,4′-dicarboxamide], the MIC is more than 50 µM.
In the case of `CN(C)c1ccc(NC(=O)c2ccnc(-c3cc(C(=O)Nc4ccc(N(C)C)cc4)ccn3)c2)cc1` [Example 76, N^4,N^4′-bis(4-(dimethylamino)phenyl)-[2,2′-bipyridine]-4,4′-dicarboxamide], the MIC was more than 50 µM.
Same read-out and setting: the same measure for `C[N+](C)(C)c1ccc(NC(=O)c2ccnc(-c3cc(C(=O)Nc4ccc([N+](C)(C)C)cc4)ccn3)c2)cc1` [Example 78, 4,4′-(([2,2′-bipyridine]-4,4′-dicarbonyl)bis(azanediyl))bis(N,N,N-trimethylbenzenaminium)]: more than 50 µM; for `O=C(Nc1ccc(Nc2ccncc2)cc1)c1ccc(C(=O)Nc2ccc(Nc3ccncc3)cc2)nc1` [Example 79, N^2,N^5-bis(4-(pyridin-4-ylamino)phenyl)pyridine-2,5-dicarboxamide]: more than 50 µM; for `CN(C)c1ccc(NC(=O)c2ccc(-c3ccc(C(=O)Nc4ccc(N(C)C)c(Br)c4)cc3)cc2)cc1Br` [Example 80, N^4,N^4′-bis(3-bromo-4-(dimethylamino)phenyl)-[1,1′-biphenyl]-4,4′-dicarboxamide]: more than 50 µM.
For `O=C(Nc1ccc(-c2ccc(NC(=O)c3ccncc3)cc2)cc1)c1ccncc1` [Example 81, N,N′-([1,1′-biphenyl]-4,4′-diyl)diisonicotinamide], the minimum inhibitory concentration (MIC) was more than 50 µM.
As to `C[N+](C)(C)c1ccc(NC(=O)c2ccc(-c3ccc(C(=O)Nc4ccc([N+](C)(C)C)c(C(F)(F)F)c4)cc3)cc2)cc1C(F)(F)F` [Example 82, 4,4′-(([1,1′-biphenyl]-4,4′-dicarbonyl)bis(azanediyl))bis(N,N,N-trimethyl-2-(trifluoromethyl)benzenaminium)], the MIC was more than 50 µM.
Still for that read-out and setting: the same measure for `O=C(Nc1ccc(Oc2ccncc2)cc1)c1ccc(C(=O)Nc2ccc(Oc3ccncc3)cc2)c([N+](=O)[O-])c1` [Example 83, 2-nitro-N^1,N^4-bis(4-(pyridin-4-yloxy)phenyl)terephthalamide]: more than 50 µM; for `C[n+]1ccc(C(=O)Nc2ccc(-c3ccc(NC(=O)c4cc[n+](C)cc4)cc3)cc2)cc1` [Example 85, 4,4′-(([1,1′-biphenyl]-4,4′-diylbis(azanediyl))bis(carbonyl))bis(1-methylpyridin-1-ium)]: more than 50 µM.
